This is an account of results in patent US10906915B2, “Substituted pyrazoloazepin-4-ones and their use as phosphodiesterase inhibitors” (LEO Pharma A/S, priority 2016, dated 2021).

human PDE4D catalytic domain, sequence (Q08499 380-740 limits assumed): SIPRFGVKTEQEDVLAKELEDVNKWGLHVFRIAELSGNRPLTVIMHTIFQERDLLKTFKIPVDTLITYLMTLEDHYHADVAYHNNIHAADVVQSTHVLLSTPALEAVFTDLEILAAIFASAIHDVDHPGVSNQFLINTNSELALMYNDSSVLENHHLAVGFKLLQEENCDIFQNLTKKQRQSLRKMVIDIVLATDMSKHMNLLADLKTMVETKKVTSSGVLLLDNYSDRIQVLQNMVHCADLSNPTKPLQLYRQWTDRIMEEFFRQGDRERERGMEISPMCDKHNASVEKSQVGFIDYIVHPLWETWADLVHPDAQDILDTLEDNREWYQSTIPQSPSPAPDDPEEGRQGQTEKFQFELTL

One assay has as its target human PDE4D catalytic domain (UniProt no. Q08499) (Homo sapiens (Human), UniProt Q08499). Briefly: PDE4 assay (TR-FRET, FAM-cAMP cleavage). It is filed as biochemical. To be noted: human PDE4D catalytic domain; molar concentration giving 50% inhibition of substrate cleavage; read-out: PDE4 IC50 range. In short, it runs like this:
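PDE4D catalytic domain ([…]) was incubated with unlabelled cAMP plus FAM-cAMP and titrated compound, stopped with binding buffer of metal-ion nanoparticles and Tb donor. AMP generation read by TR-FRET; IC50 as 50% inhibition of cleavage versus controls, reported as nM ranges.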
Background: In TR-FRET formats the signal depends on donor and acceptor labels being close together.
As to `CCc1nn(C[C@@H](C)COC(=O)c2ccc(C(N)=O)cc2)c2c1C(=O)NCC1(CCOCC1)C2` [Example 252, [(2R)-3-(3-ethyl-4-oxo-spiro[6,8-dihydro-5H-pyrazolo[4,3-c]azepine-7,4′-tetrahydropyran]-1-yl)-2-methyl-propyl] 4-carbamoylbenzoate], the IC50 – broadly, the concentration needed to halve the response being measured – was below 100 nM.
The same measure, in the same setting: the figure for `CCc1nn(C[C@@H](C)COC(=O)c2ccc(C(=O)NC)cc2)c2c1C(=O)NCC1(CCOCC1)C2` [Example 253, [(2R)-3-(3-ethyl-4-oxo-spiro[6,8-dihydro-5H-pyrazolo[4,3-c]azepine-7,4′-tetrahydropyran]-1-yl)-2-methyl-propyl] 4-(methylcarbamoyl)benzoate] is below 100 nM; for `CCNC(=O)c1ccc(C(=O)OC[C@H](C)Cn2nc(CC)c3c2CC2(CCOCC2)CNC3=O)cc1` [Example 254, [(2R)-3-(3-ethyl-4-oxo-spiro[6,8-dihydro-5H-pyrazolo[4,3-c]azepine-7,4′-tetrahydropyran]-1-yl)-2-methyl-propyl] 4-(ethylcarbamoyl)benzoate] it is below 100 nM.
Still for that read-out and setting: the result for `CCc1nn(C[C@@H](C)COC(=O)c2ccc(C(=O)N(C)C)cc2)c2c1C(=O)NCC1(CCOCC1)C2` [Example 255, [(2R)-3-(3-ethyl-4-oxo-spiro[6,8-dihydro-5H-pyrazolo[4,3-c]azepine-7,4′-tetrahydropyran]-1-yl)-2-methyl-propyl] 4-(dimethylcarbamoyl)benzoate] reads below 100 nM; that for `CCc1nn(C[C@@H](C)COC(=O)c2ccc(C(=O)NC(C)C)cc2)c2c1C(=O)NCC1(CCOCC1)C2` [Example 256, [(2R)-3-(3-ethyl-4-oxo-spiro[6,8-dihydro-5H-pyrazolo[4,3-c]azepine-7,4′-tetrahydropyran]-1-yl)-2-methyl-propyl] 4-(isopropylcarbamoyl)benzoate], below 100 nM; that for `CCc1nn(C[C@@H](C)COC(=O)c2ccc(C(=O)N3CCCC3)cc2)c2c1C(=O)NCC1(CCOCC1)C2` [Example 257, [(2R)-3-(3-ethyl-4-oxo-spiro[6,8-dihydro-5H-pyrazolo[4,3-c]azepine-7,4′-tetrahydropyran]-1-yl)-2-methyl-propyl] 4-(pyrrolidine-1-carbonyl)benzoate], below 100 nM.
Same read-out and setting: the result for `CCc1nn(C[C@@H](C)COC(=O)c2ccc(C(=O)N3CCCCC3)cc2)c2c1C(=O)NCC1(CCOCC1)C2` [Example 258, [(2R)-3-(3-ethyl-4-oxo-spiro[6,8-dihydro-5H-pyrazolo[4,3-c]azepine-7,4′-tetrahydropyran]-1-yl)-2-methyl-propyl] 4-(piperidine-1-carbonyl)benzoate] reads below 100 nM.
With `CCc1nn(C[C@@H](C)COC(=O)c2ccc(C(=O)N3CCNCC3)cc2)c2c1C(=O)NCC1(CCOCC1)C2` [Example 259, [(2R)-3-(3-ethyl-4-oxo-spiro[6,8-dihydro-5H-pyrazolo[4,3-c]azepine-7,4′-tetrahydropyran]-1-yl)-2-methyl-propyl] 4-(piperazine-1-carbonyl)benzoate], the half-maximal inhibitory concentration (IC50) was below 100 nM.
For the molecule `CCc1nn(C[C@@H](C)COC(=O)c2ccc(C(=O)N3CCOCC3)cc2)c2c1C(=O)NCC1(CCOCC1)C2` [Example 260, [(2R)-3-(3-ethyl-4-oxo-spiro[6,8-dihydro-5H-pyrazolo[4,3-c]azepine-7,4′-tetrahydropyran]-1-yl)-2-methyl-propyl] 4-(morpholine-4-carbonyl)benzoate], the IC50 was below 100 nM.
Same read-out and setting: the figure for `CCc1nn(C[C@@H](C)COC(=O)c2ccc(C(=O)N3CCN(C)CC3)cc2)c2c1C(=O)NCC1(CCOCC1)C2` [Example 261, [(2R)-3-(3-ethyl-4-oxo-spiro[6,8-dihydro-5H-pyrazolo[4,3-c]azepine-7,4′-tetrahydropyran]-1-yl)-2-methyl-propyl] 4-(4-methylpiperazine-1-carbonyl)benzoate] is below 100 nM; for `CCc1nn(C[C@@H](C)COC(=O)c2ccc(C(=O)N3CCN(C(C)=O)CC3)cc2)c2c1C(=O)NCC1(CCOCC1)C2` [Example 262, [(2R)-3-(3-ethyl-4-oxo-spiro[6,8-dihydro-5H-pyrazolo[4,3-c]azepine-7,4′-tetrahydropyran]-1-yl)-2-methyl-propyl] 4-(4-acetylpiperazine-1-carbonyl)benzoate] it is below 100 nM.

Still in this assay, the particulars now being: read-out: PDE4 IC50 range.
As for `CCc1nn(C[C@@H](C)COC(=O)c2cccc(C(N)=O)c2)c2c1C(=O)NCC1(CCOCC1)C2` [Example 263, [(2R)-3-(3-ethyl-4-oxo-spiro[6,8-dihydro-5H-pyrazolo[4,3-c]azepine-7,4′-tetrahydropyran]-1-yl)-2-methyl-propyl] 3-carbamoylbenzoate], the IC50 was below 100 nM.
Still for that read-out and setting: the figure for `CCc1nn(C[C@@H](C)COC(=O)c2cccc(C(=O)NC)c2)c2c1C(=O)NCC1(CCOCC1)C2` [Example 264, [(2R)-3-(3-ethyl-4-oxo-spiro[6,8-dihydro-5H-pyrazolo[4,3-c]azepine-7,4′-tetrahydropyran]-1-yl)-2-methyl-propyl] 3-(methylcarbamoyl)benzoate] is below 100 nM; for `CCNC(=O)c1cccc(C(=O)OC[C@H](C)Cn2nc(CC)c3c2CC2(CCOCC2)CNC3=O)c1` [Example 265, [(2R)-3-(3-ethyl-4-oxo-spiro[6,8-dihydro-5H-pyrazolo[4,3-c]azepine-7,4′-tetrahydropyran]-1-yl)-2-methyl-propyl] 3-(ethylcarbamoyl)benzoate] it is below 100 nM; for `CCc1nn(C[C@@H](C)COC(=O)c2cccc(C(=O)N(C)C)c2)c2c1C(=O)NCC1(CCOCC1)C2` [Example 266, [(2R)-3-(3-ethyl-4-oxo-spiro[6,8-dihydro-5H-pyrazolo[4,3-c]azepine-7,4′-tetrahydropyran]-1-yl)-2-methyl-propyl] 3-(dimethylcarbamoyl)benzoate] it is below 100 nM.
As for `CCc1nn(C[C@@H](C)COC(=O)c2cccc(C(=O)NC(C)C)c2)c2c1C(=O)NCC1(CCOCC1)C2` [Example 267, [(2R)-3-(3-ethyl-4-oxo-spiro[6,8-dihydro-5H-pyrazolo[4,3-c]azepine-7,4′-tetrahydropyran]-1-yl)-2-methyl-propyl] 3-(isopropylcarbamoyl)benzoate], the half-maximal inhibitory concentration (IC50) was below 100 nM.
On the same count and under the same terms, the result for `CCc1nn(C[C@@H](C)COC(=O)c2cccc(C(=O)N3CCCC3)c2)c2c1C(=O)NCC1(CCOCC1)C2` [Example 268, [(2R)-3-(3-ethyl-4-oxo-spiro[6,8-dihydro-5H-pyrazolo[4,3-c]azepine-7,4′-tetrahydropyran]-1-yl)-2-methyl-propyl] 3-(pyrrolidine-1-carbonyl)benzoate] reads below 100 nM; that for `CCc1nn(C[C@@H](C)COC(=O)c2cccc(C(=O)N3CCCCC3)c2)c2c1C(=O)NCC1(CCOCC1)C2` [Example 269, [(2R)-3-(3-ethyl-4-oxo-spiro[6,8-dihydro-5H-pyrazolo[4,3-c]azepine-7,4′-tetrahydropyran]-1-yl)-2-methyl-propyl] 3-(piperidine-1-carbonyl)benzoate], below 100 nM.
The same measure, in the same setting: the result for `CCc1nn(C[C@@H](C)COC(=O)c2cccc(C(=O)N3CCNCC3)c2)c2c1C(=O)NCC1(CCOCC1)C2` [Example 270, [(2R)-3-(3-ethyl-4-oxo-spiro[6,8-dihydro-5H-pyrazolo[4,3-c]azepine-7,4′-tetrahydropyran]-1-yl)-2-methyl-propyl] 3-(piperazine-1-carbonyl)benzoate] reads below 100 nM.
